# Results published in ChEMBL document CHEMBL4382216, “Asymmetric synthesis and biological evaluation of imidazole- and oxazole-containing synthetic lipoxin A4 mimetics (sLXms)” (Eur J Med Chem, 2019).
# The source made the active and inactive calls. The calls are words filed in the database; no cut-off is given here.
# Experiments:
# Homo sapiens = species on record: Homo sapiens; experiment: Activation of Luc-fused NFkB (unknown origin) expressed in non-stimulated human THP1 cells assessed as relative luminescence unit at 10^-11 M after 24 hrs by luciferase reporter gene assay (reference value: 100%); type: cell-based
# J774.1 [1] = experiment: Anti-inflammatory activity in mouse J774.1 cells assessed as reduction in LPS-stimulated TNFalpha level at 100 nM preincubated for 1 hr followed by LPS stimulation for 24 hrs by ELISA relative to control; type: functional; set-up: scale not given: the % may be the effect or the level left
# [2] = molecular target: T1, N-formyl peptide receptor 2 (Homo sapiens) (UniProt P25090); experiment: Agonist activity at ALX/FPR2 (unknown origin) expressed in HEK293 cells co-expressing Galphaq assessed as induction of intracellular calcium accumulation at 0.01 nM to 100 nM by Fluo-4 dye based fluorescence spectrophotometric assay; type: functional, cell-based
# T1 sequence (whole entry): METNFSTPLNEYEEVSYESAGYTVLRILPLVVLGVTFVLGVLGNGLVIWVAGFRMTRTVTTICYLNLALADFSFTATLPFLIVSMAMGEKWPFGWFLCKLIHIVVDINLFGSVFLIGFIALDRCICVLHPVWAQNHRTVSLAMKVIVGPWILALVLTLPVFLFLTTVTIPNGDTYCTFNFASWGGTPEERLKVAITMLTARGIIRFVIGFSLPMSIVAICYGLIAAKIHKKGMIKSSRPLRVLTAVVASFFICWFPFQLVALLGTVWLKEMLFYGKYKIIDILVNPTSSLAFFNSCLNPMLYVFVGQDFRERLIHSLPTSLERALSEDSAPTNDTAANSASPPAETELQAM
# Mus musculus [3] = experiment: (§1) Anti-inflammatory activity in zymosan-induced C57BL/6J mouse peritonitis model assessed as reduction in total cell count in peritoneal cavity at 125 ng, ip pretreated for 30 mins followed by zymosan treatment and redosing of test compound at 1 hr post zymosan addition and measured at 24 hrs post zymosan addition by flow cytometry relative to basal level (reference value: 14); type: functional
# Mus musculus [4] = experiment: as §1, with “as” for “as reduction in”, “cytometry” for “cytometry relative to basal level”, “100%)” for “14)”; type: functional
# Mus musculus [5] = experiment: as §1, with “PMN leukocytes level” for “reduction in total cell count”, “cytometry” for “cytometry relative to basal level”, “100%)” for “14)”; type: functional
# J774.1 [6] = experiment: Anti-inflammatory activity in mouse J774.1 cells assessed as reduction in LPS-stimulated TNFalpha level at 10 nM preincubated for 1 hr followed by LPS stimulation for 24 hrs by ELISA relative to control; type: functional; set-up: scale not given: the % may be the effect or the level left
compound,measurement,setting,value
CCCCC[C@H](O)c1nc(-c2ccccc2)n(-c2ccccc2)c1/C=C/[C@@H](O)[C@@H](O)CCCC(=O)OC,Activity,Homo sapiens,1.4%
same,Activity,J774.1 [1],41%
same,Activity,[2],Active
CCCCC[C@H](O)/C=C/C=C\C=C\C=C\[C@@H](O)[C@@H](O)CCCC(=O)O [LIPOXIN A4],fold change (FC),Mus musculus [3],5
same,Activity,[2],Active
same,Emax,Mus musculus [4],35.3%
same,Emax,Mus musculus [5],35.9%
CCCCC[C@@H](O)c1nc(-c2ccccc2)n(-c2ccccc2)c1/C=C/[C@@H](O)[C@@H](O)CCCC(=O)OC,Activity,Homo sapiens,1.5%
same,Activity,J774.1 [6],30%
